Patent US6680335B2, “Methods of modulating protein tyrosine kinase function with substituted indolinone compounds” (Sugen, Inc., priority 1998, dated 2004)

Experiments:
FLK-1 receptor = biological target: T1, FLK-1 receptor (Mus musculus, UniProt P35918); test: ELISA assay measuring the kinase activity of the FLK-1 receptor in cells engineered to express FLK-1; type: cell-based; conditions: FLK-1 expressing NIH3T3 C7#3 cells, VEGF stimulated; for inhibition at 100 µM: compound at 100 μM
T1 construct: expressed in transfected cells; host or cells: NIH3T3 C7#3 cells
Procedure: An ELISA assay was conducted to measure the kinase activity of the FLK-1 receptor and more specifically, the inhibition or activation of TK activity on the FLK-1 receptor. Specifically, the following assay was conducted to measure kinase activity of the FLK-1 receptor in cells genetically engineered to express FLK-1.
(11) NIH3T3 C7#3 Cells (FLK-1 expressing cells);
The following protocol was used for conducting the assay:
1. Coat Corning 96-well elisa plates with 1.0 μg per well Cappel Anti-rabbit IgG antibody in 0.1 M Na2CO3 pH 9.6. Bring final volume to 150 μL per well. Coat plates overnight at 4° C. Plates can be kept up to two weeks when stored at 4° C.
2. Grow cells in Growth media (DMEM, supplemental with 2.0 mM L-Glutamine, 10% FBS) in suitable culture dishes until confluent at 37° C., 5% CO2.
3. Harvest cells by trypsinization and seed in Corning 25850 polystyrene 96-well roundbottom cell plates, 25.000 cells/well in 200 μL of growth media.
4. Grow cells at least one day at 37° C., 5% CO2.
5. Wash cells with D-PBS 1×.
6. Add 200 μL/well of starvation media (DMEM, 2.0 mM 1-Glutamine, 0.1% FBS). Incubate overnight at 37° C., 5% CO2.
7. Dilute Compounds 1:20 in polypropylene 96 well plates using starvation media. Dilute dimethylsulfoxide 1:20 for use in control wells.
8. Remove starvation media from 96 well cell culture plates and add 162 μL of fresh starvation media to each well.
9. Add 18 μL of 1:20 diluted Compound dilution (from step 7) to each well plus the 1:20 dimethylsulfoxide dilution to the control wells (+/−VEGF), for a final dilution of 1:200 after cell stimulation. Final dimethylsulfoxide is 0.5%. Incubate the plate at 37° C., 5% CO2 for two hours.
10. Remove unbound antibody from ELISA plates by inverting plate to remove liquid. Wash 3 times with TBSW+0.5% ethanolamine, pH 7.0. Pat the plate on a paper towel to remove excess liquid and bubbles.
11. Block plates with TBSW+0.5% Ethanolamine, pH 7.0, 150 μL per well. Incubate plate thirty minutes while shaking on a microliter plate shaker.
12. Wash plate 3 times as described in step 10.
13. […] Bring final volume to 150 μL/well with TBSW+0.5% ethanolamine pH 7.0. Incubate plate for thirty minutes while shaking.
14. Add 180 μL starvation medium to the cells and stimulate cells with 20 μL/well 10.0 mM sodium ortho vanadate and 500 ng/mL VEGF (resulting in a final concentration of 1.0 mM sodium ortho vanadate and 50 ng/mL VEGF per well) for eight minutes at 37° C., 5% CO2. Negative control wells receive only starvation medium.
15. After eight minutes, media should be removed from the cells and washed one time with 200 μL/well PBS.
16. Lyse cells in 150 μL/well HNTG while shaking at room temperature for five minutes. HNTG formulation includes sodium ortho vanadate, sodium pyro phosphate and EDTA.
17. Wash ELISA plate three times as described in step 10.
18. Transfer cell lysates from the cell plate to ELISA plate and incubate while shaking for two hours. To transfer cell lysate pipette up and down while scrapping the wells.
19. Wash plate three times as described in step 10.
20. Incubate ELISA plate with 0.02 μg/well UB40 in TBSW+05% ethanolamine. Bring final volume to 150 μL/well. Incubate while shaking for 30 minutes.
21. Wash plate three times as described in step 10.
22. Incubate ELISA plate with 1:10,000 diluted EIA grade goat anti-mouse IgG conjugated horseradish peroxidase in TBSW+0.5% ethanolamine, pH 7.0. Bring final volume to 150 μL/well. Incubate while shaking for thirty minutes.
23. Wash plate as described in step 10.
24. Add 100 μL of ABTS/H2O2 solution to well. Incubate ten minutes while shaking.
25. Add 100 μL of 0.2 M HCl for 0.1 M HCl final to stop the color development reaction. Shake 1 minute at room temperature. Remove bubbles with slow stream of air and read the ELISA plate in an ELISA plate reader at 410 nm.
(§1) The IC50 values were measured for several of the compounds of the invention.

pyk-2 protein kinase = biological target: T2, pyk-2 protein kinase (Homo sapiens, UniProt Q14289); test: Assay measuring PYK-2 protein kinase activity (phosphorylation of a biotinylated peptide); type: biochemical; conditions: pyk-2 from transformed yeast lysate, 5 μM ATP; compound at 100 μM
T2 construct: made in house; host or cells: Schizosaccharomyces pombe strain SP200, pRSP expression plasmids
Procedure: This assay is used to determine pyk-2 protein kinase activity measuring phosphorylation of a biotinylated peptide as the readout.
a. Yeast transformed with pyk-2.
b. Cell lysates: Yeast cells expressing pyk-2 are pelleted, washed once with water, re-pelleted and stored at −80° C. until use.
(§2) c. N-terminus biotinylated […] is prepared by standard procedures well known to those skilled in the art.
(§3) h. […] S. Pombe strain SP200 (h-s leul.32 ura4 ade21O) was grown as described and transformations were pRSP expression plasmids were done by the lithium acetate method (Superti-Furga, supra). Cells were grown in the presence of 1 μM thiamine to repress expression from the nmtl promoter or in the absence of thiamine to induce expression.
a. Preparation of pyk-2 coated ELISA plate.
1. Coat ELISA plate with 0.5 μg/well anti-pyk-2 mab in 100 μL of pH 9.6 sodium carbonate buffer at 4° C. overnight.
(§4) 2. Wash wells once with PBS.
(§5) 3. Block plate with 0.15 mL 5% milk in PBS for 30 min. at room temperature.
(§6) 4. Wash plate 5× with PBS.
5. Add 10 μg/well of pyk-2 transformed yeast lysates diluted in Lysis Buffer (0.1 mL total volume per well). (Amount of lysate may vary between hatches.) Shake plate for 20 minutes at room temperature.
(§7) b. Preparation of phosphotyrosine antibody-coated ELISA plate.
(§8) 1. 4G10 plate: coat 0.5 μg/well 4G10 in 100 μL PBS overnight at 4° C. and block with 150 μL of 5% milk in PBS for 30 minutes at room temperature.
(§9) c. Kinase assay procedure.
(§10) 1. Remove unbound proteins from steps 1-7, above, and wash plates 5× with PBS.
2. Add 0.08 mL Kinase Reaction Mixture per well (containing […] of 10×Kinase Buffer and 10 pM (final concentration) biotin-[…] per well diluted in water.
(§11) 3. Add 10 μL of compound diluted in water containing 10% DMSO and pre-incubate for 15 minutes at room temperature.
(§12) 4. Start kinase reaction by adding 10 μL/well of 0.05 mM ATP in water (5 μM ATP final).
(§13) 5. Shake ELISA plate for 15 min. at room temperature.
(§14) 6. Stop kinase reaction by adding 10 μL of 0.5 M EDTA per well.
(§15) 7. Transfer 90 μL supernatant to a blocked 4G10 coated ELISA plate from section B, above.
(§16) 8. Incubate for 30 min. while shaking at room temperature.
(§17) 9. Wash plate 5× with TBST.
(§18) 10. Incubate with Vectastain ELITE ABC reagent (100 μL/well) for 30 min. at room temperature.
(§19) 11. Wash the wells 5× with TBST.
(§20) 12. Develop with Turbo TMB.
as §1

src protein kinase = biological target: T3, src protein kinase (Gallus gallus, UniProt P00523); test: Assay measuring SRC protein kinase activity (phosphorylation of a biotinylated peptide); type: biochemical; conditions: src from transformed yeast lysate, 5 μM ATP; compound at 100 μM
T3 construct: made in house; host or cells: Schizosaccharomyces pombe strain SP200, pRSP expression plasmids
Procedure: This assay is used to determine src protein kinase activity measuring phosphorylation of a biotinylated peptide as the readout.
a. Yeast transformed with src.
b. Cell lysates: Yeast cells expressing src are pelleted, washed once with water, re-pelleted and stored at −80° C. until use.
as §2, §3
a. Preparation of src coated ELISA plate.
1. Coat ELISA plate with 0.5 μg/well anti-src mab in 100 μL of pH 9.6 sodium carbonate buffer at 4° C. overnight.
as §4, §5, §6
5. Add 10 μg/well of src transformed yeast lysates diluted in Lysis Buffer (0.1 mL total volume per well). (Amount of lysate may vary between hatches.) Shake plate for 20 minutes at room temperature.
as §7, §8, §9, §10
2. Add 0.08 mL Kinase Reaction Mixture per well (containing 10 μL of 10×Kinase Buffer and 10 μM (final concentration) biotin-[…] per well diluted in water.
as §11, §12, §13, §14, §15, §16, §17, §18, §19, §20, §1

T2 sequence (Q14289 whole entry): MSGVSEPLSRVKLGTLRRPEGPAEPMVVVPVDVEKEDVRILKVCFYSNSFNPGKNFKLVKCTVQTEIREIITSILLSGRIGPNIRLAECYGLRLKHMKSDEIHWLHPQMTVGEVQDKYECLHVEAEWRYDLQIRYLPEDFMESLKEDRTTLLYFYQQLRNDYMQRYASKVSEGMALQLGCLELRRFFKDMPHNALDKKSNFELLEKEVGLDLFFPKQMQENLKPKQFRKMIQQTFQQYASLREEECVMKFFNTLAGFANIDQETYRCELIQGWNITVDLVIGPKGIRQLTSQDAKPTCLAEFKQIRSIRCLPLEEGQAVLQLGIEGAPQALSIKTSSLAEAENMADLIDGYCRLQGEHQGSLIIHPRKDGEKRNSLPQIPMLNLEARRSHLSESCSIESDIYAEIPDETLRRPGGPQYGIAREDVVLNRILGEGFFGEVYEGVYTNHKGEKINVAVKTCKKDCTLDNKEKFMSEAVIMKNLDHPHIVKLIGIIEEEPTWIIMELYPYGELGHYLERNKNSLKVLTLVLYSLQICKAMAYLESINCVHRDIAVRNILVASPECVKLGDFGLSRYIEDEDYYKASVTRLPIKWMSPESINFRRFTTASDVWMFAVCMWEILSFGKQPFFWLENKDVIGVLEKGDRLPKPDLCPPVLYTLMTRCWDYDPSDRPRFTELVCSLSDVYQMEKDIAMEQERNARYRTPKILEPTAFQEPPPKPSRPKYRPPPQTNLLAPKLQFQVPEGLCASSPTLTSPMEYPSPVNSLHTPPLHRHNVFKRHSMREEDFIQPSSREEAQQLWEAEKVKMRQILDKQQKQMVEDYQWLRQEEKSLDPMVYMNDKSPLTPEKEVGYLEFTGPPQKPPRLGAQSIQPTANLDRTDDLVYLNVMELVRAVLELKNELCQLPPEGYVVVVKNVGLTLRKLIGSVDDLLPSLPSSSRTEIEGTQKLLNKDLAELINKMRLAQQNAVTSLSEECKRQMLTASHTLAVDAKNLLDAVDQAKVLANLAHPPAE
T1 sequence (P35918 20-1345): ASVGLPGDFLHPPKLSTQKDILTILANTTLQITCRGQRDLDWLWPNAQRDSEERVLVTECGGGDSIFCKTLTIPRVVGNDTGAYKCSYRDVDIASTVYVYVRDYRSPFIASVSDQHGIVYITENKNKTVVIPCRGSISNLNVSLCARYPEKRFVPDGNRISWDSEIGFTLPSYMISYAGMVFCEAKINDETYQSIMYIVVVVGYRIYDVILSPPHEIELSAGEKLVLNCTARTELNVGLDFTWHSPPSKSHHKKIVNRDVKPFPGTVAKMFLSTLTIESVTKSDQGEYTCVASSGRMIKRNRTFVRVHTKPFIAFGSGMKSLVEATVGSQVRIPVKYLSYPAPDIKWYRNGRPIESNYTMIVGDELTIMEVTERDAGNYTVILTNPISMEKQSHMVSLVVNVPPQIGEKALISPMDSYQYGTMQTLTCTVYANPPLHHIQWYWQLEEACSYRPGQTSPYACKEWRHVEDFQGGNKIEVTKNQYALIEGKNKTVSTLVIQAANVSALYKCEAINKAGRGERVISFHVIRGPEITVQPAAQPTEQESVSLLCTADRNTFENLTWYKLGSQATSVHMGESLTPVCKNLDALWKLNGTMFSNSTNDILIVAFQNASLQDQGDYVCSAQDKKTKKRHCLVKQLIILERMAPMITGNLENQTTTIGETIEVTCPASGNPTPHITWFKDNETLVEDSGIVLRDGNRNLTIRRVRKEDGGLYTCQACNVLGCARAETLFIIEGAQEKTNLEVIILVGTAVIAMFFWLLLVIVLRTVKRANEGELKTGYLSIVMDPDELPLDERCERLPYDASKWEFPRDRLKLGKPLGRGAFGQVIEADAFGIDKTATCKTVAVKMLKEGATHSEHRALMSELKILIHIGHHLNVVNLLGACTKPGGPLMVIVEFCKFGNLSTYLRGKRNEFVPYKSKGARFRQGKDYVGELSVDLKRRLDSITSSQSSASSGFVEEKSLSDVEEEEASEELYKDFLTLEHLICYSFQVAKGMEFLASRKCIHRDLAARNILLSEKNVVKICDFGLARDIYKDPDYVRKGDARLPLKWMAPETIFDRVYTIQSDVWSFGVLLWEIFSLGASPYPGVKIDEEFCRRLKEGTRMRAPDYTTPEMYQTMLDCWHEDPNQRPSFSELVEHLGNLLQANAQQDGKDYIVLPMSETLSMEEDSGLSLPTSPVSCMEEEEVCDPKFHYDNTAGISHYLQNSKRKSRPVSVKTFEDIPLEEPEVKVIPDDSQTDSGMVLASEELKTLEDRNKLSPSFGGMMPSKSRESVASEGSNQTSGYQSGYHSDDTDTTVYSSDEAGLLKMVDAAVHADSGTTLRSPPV

Compound | inhibition at 100 µM (FLK-1 receptor) [%] | inhibition at 100 µM (pyk-2 protein kinase) [%] | inhibition at 100 µM (src protein kinase) [%] | IC50 (FLK-1 receptor; cells without % or + sign) [µM]
Cc1c(C=C2C(=O)Nc3ccc(S(=O)(=O)N(C)C)cc32)[nH]c2ccccc12 (mixture of isomers) [IN-004, 3-(3-Methyl-1H-indol-2-ylmethylene)-2-oxo-2,3-dihydro-1H-indole-5-sulfonic acid dimethylamide] | 7 | 44.4 | -4.6 | 
CNS(=O)(=O)c1ccc2c(c1)C(=Cc1[nH]c3ccccc3c1C)C(=O)N2 [IN-003, 3-(3-Methyl-1H-indol-2-ylmethylene)-2-oxo-2,3-dihydro-1H-indole-5-sulfonic acid methylamide] | 11 | 67.5 |  | 
O=C1Nc2ccc(/N=C/c3cc4ccccc4[nH]3)cc2/C1=C/c1cc2ccccc2[nH]1 [IN-020, 3-(1H-indol-2-ylmethylene)-5-[(1H-indol-2-ylmethylene)-amino]-1,3-dihydro-indol-2-one] |  | 64.3 | 7.62 | > 100
Cc1cccc2c1C(=Cc1cc3ccccc3[nH]1)C(=O)N2 [IN-015, 3-(1H-indol-2-ylmethylene)-4-methyl-1,3-dihydro-indol-2-one] | 26 | 3.9 | 16 | 
O=C1Nc2ccc(Br)cc2C1=Cc1cc2ccccc2[nH]1 [IN-014, 5-Bromo-3-(1H-indol-2-ylmethylene)-1,3-dihydro-indol-2-one] | 10 | -14 | -2.4 | 
